These results are taken from patent US9481635B2, “Process for preparing gabapentin” (ZACH SYSTEM S.P.A., priority 2013, dated 2016).

Data set [1] in a line: Solubility of gabapentin in anhydrous extraction solvents. In kind it is physicochemical. The source says: Thus, the solution of gabapentin in cresol after extraction may be anhydrified, for example, by distillation so as to crystallize the undesired residual salts leaving the gabapentin itself in solution. Said solution of gabapentin in cresol obtained from the removal of the salts by filtration and/or by contro-extraction with water has a chloride content of a few tens of ppm.
The same technique cannot be applied to the corresponding solution in n-butanol of the prior art, since the solubility of gabapentin in the anhydrous solvent is very low; as a result the butanolic solution of gabapentin extraction from the Hofmann end solution, when subjected to anhydrification reaction, leads to the co-precipitation of gabapentin and of these same salts, thus, with no advantage from the point of view of product purity.

The conditions of data set [2]: as stated for U.S. Pat. No. 6,518,456; cited from earlier work.

Structures are written as SMILES. “Also recorded” adds a separate entry of the source.

As for `NCC1(CC(=O)O)CCCCC1` [gabapentin, 1-(aminomethyl)-cyclohexaneacetic acid], the solubility result in data set [1] (in anhydrous cresol) was “about 20%”; in data set [1] (in anhydrous n-butanol), “virtually zero; also recorded: very low”. Further, the “isoelectric point (pH)” value in data set [2] was 7.2 pH.
